Data taken from patent US8637525B2, “Compounds for the reduction of beta-amyloid production” (Bristol-Myers Squibb Company, priority 2009, dated 2014).
Where a name gives a salt, the structure may show the parent alone.

Tested on: Aβ1-42 production
Assay: Cellular assay for inhibition of Aβ1-42 production (H4 APP751 SWE clone 8.20)
Format: cell-based
Settings: 19 h, H4 APP751 SWE clone 8.20 cells, 19 h incubation; class symbols; read-out: Activity Rating (Aβ42 cellular IC50)
Description: Cellular Assays for Inhibition of Aβ1-40 and Aβ1-42 Production
H4 cells stably transfected with APP751 containing the Swedish mutation (H4 APP751 SWE clone 8.20, developed at BMS) were maintained in log phase through twice weekly passage at a 1:20 split. […] Following incubation for 19 h in 5% CO2 at 37° C., plates were briefly centrifuged (1000 rpm, 5 min). A 10 μl aliquot from each well was transferred to a second assay plate (Costar 3709) for Aβ40 measurements. Antibody cocktails were freshly prepared by dilution into 40 mM Tris-HCl (pH 7.4) with 0.2% BSA and added to assay plates. For Aβ42 measurements, antibodies specific for the Aβ42 neoepitope (565, developed at BMS; conjugated to the Wallac reagent (Perkin Elmer)) and the N-terminal sequence of Aβ peptide (26D6, developed at SIBIA; conjugated to APC (Perkin Elmer)) were mixed and 20 μl of the mixture was added to each well of the incubated cell plate yielding a final concentration of 0.8 ng/well 565 and 75 ng/well 26D6. For the Aβ40 measurements, antibodies specific for the Aβ40 neoepitope (TSD, developed at BMS; conjugated to the Wallac reagent (Perkin Elmer)) and 26D6 as described above were mixed and 20 μl of the mixture was added to the 10 μl aliquots which had been removed previously from the cell plate yielding a final concentration of 1.6 ng/well TSD and 17.5 ng/well 26D6. Assay plates containing antibodies were sealed with aluminum foil and incubated overnight at 4° C. Signal was determined using a Viewlux counter (Perkin Elmer) and IC50 values determined using curve fitting in CurveMaster (Excel Fit based).

| IC50 | Compound |
| --- | --- |
| 1.5 to 9.9 nM | CNc1nc(Nc2ccc(-n3cnc(Cl)c3)c(OC)c2)nc2c1CCC2c1ccc(Cl)cc1 (racemic) [Example 94, N^2-(4-(4-Chloro-1H-imidazol-1-yl)-3-methoxyphenyl)-7-(4-chlorophenyl)-N^4-methyl-6,7-dihydro-5H-cyclopenta[d]pyrimidine-2,4-diamine] |
| 1.5 to 9.9 nM | COc1cc(Nc2nc3c(c(N(C)C)n2)CCC3c2ccc(F)c(F)c2)ccc1-n1cnc(Cl)c1 (racemic) [Example 95, N^2-(4-(4-Chloro-1H-imidazol-1-yl)-3-methoxyphenyl)-7-(3,4-difluorophenyl)-N^4,N^4-dimethyl-6,7-dihydro-5H-cyclopenta[d]pyrimidine-2,4-diamine] |
| 1.5 to 9.9 nM | CNc1nc(Nc2ccc(-n3cnc(Cl)c3)c(OC)c2)nc2c1CCC2c1ccc(F)c(F)c1 (racemic) [Example 96, N^2-(4-(4-Chloro-1H-imidazol-1-yl)-3-methoxyphenyl)-7-(3,4-difluorophenyl)-N^4-methyl-6,7-dihydro-5H-cyclopenta[d]pyrimidine-2,4-diamine] |
| 1.5 to 9.9 nM | CNc1nc(Nc2ccc(-n3cnc(Cl)c3)c(OC)c2)nc2c1CCC2c1ccc(OC(F)(F)F)cc1 (racemic) [Example 97, N^2-(4-(4-Chloro-1H-imidazol-1-yl)-3-methoxyphenyl)-N^4-methyl-7-(4-(trifluoromethoxy)phenyl)-6,7-dihydro-5H-cyclopenta[d]pyrimidine-2,4-diamine] |
| 10 to 100 nM | CCNc1nc(Nc2ccc(-n3cnc(Cl)c3)c(OC)c2)nc2c1CCC2c1ccc(OC(F)(F)F)cc1 (racemic) [Example 98, N^2-(4-(4-Chloro-1H-imidazol-1-yl)-3-methoxyphenyl)-N^4-ethyl-7-(4-(trifluoromethoxy)phenyl)-6,7-dihydro-5H-cyclopenta[d]pyrimidine-2,4-diamine] |
| 1.5 to 9.9 nM | COc1cc(Nc2nc3c(c(N(C)C)n2)CCC3c2ccc(OC(F)(F)F)cc2)ccc1-n1cnc(Cl)c1 (racemic) [Example 100, N^2-(4-(4-Chloro-1H-imidazol-1-yl)-3-methoxyphenyl)-N^4,N^4-dimethyl-7-(4-(trifluoromethoxy)phenyl)-6,7-dihydro-5H-cyclopenta[d]pyrimidine-2,4-diamine] |
| 10 to 100 nM | COc1cc(Nc2nc3c(c(N4CCC4)n2)CCC3c2ccc(OC(F)(F)F)cc2)ccc1-n1cnc(Cl)c1 (racemic) [Example 101, 4-(Azetidin-1-yl)-N-(4-(4-chloro-1H-imidazol-1-yl)-3-methoxyphenyl)-7-(4-(trifluoromethoxy)phenyl)-6,7-dihydro-5H-cyclopenta[d]pyrimidin-2-amine] |
| 1.5 to 9.9 nM | CNc1nc(Nc2ccc(-n3cnc(Cl)c3)c(OC)c2)nc2c1CCC2c1cc(F)cc(F)c1 (racemic) [Example 102, N^2-(4-(4-Chloro-1H-imidazol-1-yl)-3-methoxyphenyl)-7-(3,5-difluorophenyl)-N^4-methyl-6,7-dihydro-5H-cyclopenta[d]pyrimidine-2,4-diamine] |
| 1.5 to 9.9 nM | CNc1nc(Nc2ccc(-n3cnc(Cl)c3)c(OC)c2)nc2c1CCC2c1cc(F)c(F)c(F)c1 (racemic) [Example 103, N^2-(4-(4-chloro-1H-imidazol-1-yl)-3-methoxyphenyl)-N^4-methyl-7-(3,4,5-trifluorophenyl)-6,7-dihydro-5H-cyclopenta[d]pyrimidine-2,4-diamine] |
| 10 to 100 nM | COc1cc(Nc2nc3c(c(N4CCC(F)(F)C4)n2)CCC3c2cc(F)c(F)c(F)c2)ccc1-n1cnc(Cl)c1 (racemic) [Example 107, N-(4-(4-Chloro-1H-imidazol-1-yl)-3-methoxyphenyl)-4-(3,3-difluoropyrrolidin-1-yl)-7-(3,4,5-trifluorophenyl)-6,7-dihydro-5H-cyclopenta[d]pyrimidin-2-amine] |
| 1.5 to 9.9 nM | CCNc1nc(Nc2ccc(-n3cnc(Cl)c3)c(OC)c2)nc2c1COCC2c1cc(F)cc(F)c1 (racemic) [Example 112, N2-(4-(4-chloro-1H-imidazol-1-yl)-3-methoxyphenyl)-8-(3,5-difluorophenyl)-N4-ethyl-7,8-dihydro-5H-pyrano[4,3-d]pyrimidine-2,4-diamine, TFA] |
| 1.5 to 9.9 nM | COc1cc(Nc2nc3c(c(N4CC(F)(F)C4)n2)COCC3c2ccc(F)c(F)c2)ccc1-n1cnc(Cl)c1 (racemic) [Example 114, N-(4-(4-chloro-1H-imidazol-1-yl)-3-methoxyphenyl)-4-(3,3-difluoroazetidin-1-yl)-8-(3,4-difluorophenyl)-7,8-dihydro-5H-pyrano[4,3-d]pyrimidin-2-amine, TFA] |
| 1.5 to 9.9 nM | CNc1nc(Nc2ccc(-n3cnc(Cl)c3)c(OC)c2)nc2c1COCC2c1ccc(F)c(F)c1 (racemic) [Example 115, N2-(4-(4-chloro-1H-imidazol-1-yl)-3-methoxyphenyl)-8-(3,4-difluorophenyl)-N4-methyl-7,8-dihydro-5H-pyrano[4,3-d]pyrimidine-2,4-diamine, TFA] |
| 10 to 100 nM | CCNc1nc(Nc2ccc(-n3ncnc3C)c(F)c2)nc2c1COCC2c1ccc(F)c(F)c1 (racemic) [Example 116, 8-(3,4-difluorophenyl)-N4-ethyl-N2-(3-fluoro-4-(5-methyl-1H-1,2,4-triazol-1-yl)phenyl)-7,8-dihydro-5H-pyrano[4,3-d]pyrimidine-2,4-diamine, TFA] |
| 10 to 100 nM | CCNc1nc(Nc2ccc(-n3cnc(Cl)c3)c(OC)c2)nc2c1COCC2c1ccc(C(F)(F)F)cc1 (racemic) [Example 118, N2-(4-(4-chloro-1H-imidazol-1-yl)-3-methoxyphenyl)-N4-ethyl-8-(4-(trifluoromethyl)phenyl)-7,8-dihydro-5H-pyrano[4,3-d]pyrimidine-2,4-diamine, TFA] |
| 10 to 100 nM | CCNc1nc(Nc2ccc(-n3ncnc3C)c(F)c2)nc2c1COCC2c1ccc(C(F)(F)F)cc1 (racemic) [Example 119, N4-ethyl-N2-(3-fluoro-4-(5-methyl-1H-1,2,4-triazol-1-yl)phenyl)-8-(4-(trifluoromethyl)phenyl)-7,8-dihydro-5H-pyrano[4,3-d]pyrimidine-2,4-diamine, TFA] |
| 10 to 100 nM | CNc1nc(Nc2ccc(-n3cnc(Cl)c3)c(OC)c2)nc2c1COCC2c1ccc(C(F)(F)F)cc1 (racemic) [Example 120, N2-(4-(4-chloro-1H-imidazol-1-yl)-3-methoxyphenyl)-N4-methyl-8-(4-(trifluoromethyl)phenyl)-7,8-dihydro-5H-pyrano[4,3-d]pyrimidine-2,4-diamine, TFA] |

Same assay, conditions: 19 h, H4 APP751 SWE clone 8.20 cells, 19 h incubation; read-out: Activity Rating (Aβ42 cellular IC50), numeric value

| IC50 | Compound |
| --- | --- |
| 19 nM | COc1cc(Nc2nc3c(c(N4CC(F)(F)C4)n2)CCC3c2ccc(OC(F)(F)F)cc2)ccc1-n1cnc(Cl)c1 (racemic) [Example 99, N-(4-(4-Chloro-1H-imidazol-1-yl)-3-methoxyphenyl)-4-(3,3-difluoroazetidin-1-yl)-7-(4-(trifluoromethoxy)phenyl)-6,7-dihydro-5H-cyclopenta[d]pyrimidin-2-amine] |
| 5.7 nM | CCNc1nc(Nc2ccc(-n3cnc(Cl)c3)c(OC)c2)nc2c1COCC2c1ccc(F)c(F)c1 (racemic) [Example 113, N2-(4-(4-chloro-1H-imidazol-1-yl)-3-methoxyphenyl)-8-(3,4-difluorophenyl)-N4-ethyl-7,8-dihydro-5H-pyrano[4,3-d]pyrimidine-2,4-diamine, TFA] |
